Results published in publication PMC11539244, “Relative inhibitory activities of newly developed diazabicyclooctanes, boronic acid derivatives, and penicillin-based sulfone β-lactamase inhibitors against broad-spectrum AmpC β-lactamases” (Antimicrobial Agents and Chemotherapy, 2024).
Read-outs that look alike come from different tables or passages of the source.

Columns and labels:
ACC-1 = ACC-1 (Hafnia alvei, UniProt Q9XB24); assay: IC50 of β-lactamase inhibitors, crude extract, ACC-1; assay type: biochemical
FOX-5 = FOX-5 (Aeromonas allosaccharophila, UniProt Q9F4K3); assay: IC50 of β-lactamase inhibitors, crude extract, FOX-5; assay type: biochemical
ACT-7 = ACT-7 (Enterobacter asburiae, UniProt B6V6L3); assay: biochemical
ACT-17 = ACT-17 (Enterobacter asburiae, UniProt P05364); assay type: biochemical; conditions: crude extract of E. coli TOP10 recombinant strain, mean of triplicate
CMY-2 = molecular target: T1, CMY-2 (Klebsiella pneumoniae, UniProt Q48434); assay: biochemical; parameters: species or system Citrobacter spp.
T1 construct: made in house; host or cells: E. coli TOP10, plasmid pUCp24

CMY-42 = molecular target: T2, CMY-42 (Klebsiella pneumoniae, UniProt Q48434, V231S); assay: biochemical; parameters: species or system Citrobacter spp.
T2 construct: made in house; host or cells: E. coli TOP10, plasmid pUCp24

DHA-1 = DHA-1 (Morganella morganii, UniProt P94958); assay: IC50 of β-lactamase inhibitors, crude extract, DHA-1; assay type: biochemical
LAT-1 = LAT-1 (Citrobacter portucalensis, UniProt Q48443); assay: biochemical
MOX-2 = MOX-2 (Aeromonas caviae, UniProt Q9L3G2); assay: IC50 of β-lactamase inhibitors, crude extract, MOX-2; assay type: biochemical
MIR-17 = assay: IC50 of β-lactamase inhibitors, crude extract, MIR-17; assay type: biochemical, Enterobacter roggenkampii; conditions: crude extract of E. coli TOP10 recombinant strain, mean of triplicate
Ear-1 = Ear-1 (Klebsiella aerogenes, UniProt A0A0H3FRQ3); assay: IC50 of β-lactamase inhibitors, crude extract, Ear-1; assay type: biochemical
SRT-1 = SRT-1 (Serratia marcescens, UniProt P18539); assay: IC50 of β-lactamase inhibitors, crude extract, SRT-1; assay type: biochemical; conditions: crude extract of E. coli TOP10 recombinant strain, mean of triplicate
PDC-1 = molecular target: T3, PDC-1 (Pseudomonas aeruginosa, UniProt P24735); assay: biochemical; parameters: species or system P. aeruginosa
T3 construct: made in house; host or cells: E. coli TOP10, plasmid pUCp24

PDC-5 = molecular target: T4, PDC-5 (Pseudomonas aeruginosa, UniProt P24735, R79Q/T105A); assay: biochemical; parameters: species or system P. aeruginosa
T4 construct: made in house; host or cells: E. coli TOP10, plasmid pUCp24

PDC-382 = PDC-382 (Pseudomonas aeruginosa, UniProt P24735, T96I); assay: biochemical; parameters: species or system P. aeruginosa
ADC-50 = ADC-50 (Acinetobacter baumannii, UniProt Q6DRA1); assay: IC50 of β-lactamase inhibitors, crude extract, ADC-50; assay type: biochemical, A. baumannii; conditions: ADC-50, crude extract of E. coli TOP10 recombinant strain, mean of triplicate
YRC-1 = YRC-1 (Yersinia ruckeri, UniProt Q20I87); assay: IC50 of β-lactamase inhibitors, crude extract, YRC-1; assay type: biochemical
E. coli TOP10 [1] = tested on: E. coli TOP10; parameters: method as in PMID 38727224; conditions: inhibitor alone, previous study; cited from earlier work
E. coli ATCC 25922 = assay: MIC by broth microdilution, E. coli ATCC 25922; assay type: cell-based; conditions: Escherichia coli
Method: (§1) MICs were determined in triplicate by broth microdilution (BMD) for CAZ and AMX, as well as their combinations with each β-lactamase inhibitor. CAZ, AMX, and CLA were purchased from Sigma-Aldrich (St. Louis, MO, USA). All others inhibitors (TAZ HY-W009168, AVI HY-14879, REL HY-16752, VAB HY-19930, NAC HY-109008, ZID HY-120859, TAN HY-109124, XER HY-136072, DUR HY-117974, EMT HY-103095) were purchased from MedChem Express (Luzern, Switzerland). The concentration of each β-lactamase inhibitor was chosen as the concentration used in the respective BL/BLI combination under development or commercially available, according to EUCAST or CLSI ([18], [19]). […] BMD assays were performed in cation-adjusted Mueller-Hinton (MH) broth (Bio-Rad, Marnes-la-Coquette, France) for all antibiotics or antibiotic combinations listed above, according to the EUCAST guidelines ([20]).

[2] = tested on: E. coli ACC-1 (E. coli TOP10 recombinant strain); assay: microbe, parasite or virus in culture; assay type: cell-based; conditions: Escherichia coli, read-out: MICs
Method: (§2) In order to assess the relative inhibitory activities of those BLI against AmpC β-lactamases, the corresponding blaampC genes without the original promoter sequences were amplified by PCR with specific primers, and corresponding amplicons were cloned into plasmid pUCp24, as described previously ([12], [13]). […] Cultures of E. coli TOP10 harboring recombinant plasmids and therefore producing the different AmpC tested were grown overnight at 37°C in Luria-Bertani agar medium containing amoxicillin (AMX) (50 µg/mL). The activity of the following acquired class C β-lactamases could therefore be evaluated, namely, ACC-1 (originally from Hafnia spp.), FOX-5 (from Aeromonas allosaccharophila), CMY-2 and CMY-42 (from Citrobacter spp.), DHA-1 (from Morganella morganii), ACT-7 and ACT-17 (from Enterobacter asburiae), MIR-17 (from Enterobacter roggenkampii), MOX-2 (from Aeromonas caviae), and LAT-1 (from Citrobacter portucalensis) ([5]). […] Altogether, these enzymes were chosen as representatives of clinically relevant class C β-lactamases being sources of intrinsic or acquired resistance to broad-spectrum β-lactams among most of the commonly identified Gram-negative bacteria in clinical practice.
as §1

[3] = tested on: E. coli ACT-17 (E. coli TOP10 recombinant strain); assay: microbe, parasite or virus in culture; assay type: cell-based; conditions: Escherichia coli, read-out: MICs
Method: as §2, §1

[4] = tested on: E. coli ACT-7 (E. coli TOP10 recombinant strain); assay: microbe, parasite or virus in culture; assay type: cell-based; conditions: Escherichia coli, read-out: MICs
Method: as §2, §1

[5] = tested on: E. coli CMY-2 (E. coli TOP10 recombinant strain); assay: microbe, parasite or virus in culture; assay type: cell-based; conditions: Escherichia coli, read-out: MICs
Method: as §2, §1

[6] = tested on: E. coli CMY-42 (E. coli TOP10 recombinant strain); assay: microbe, parasite or virus in culture; assay type: cell-based; conditions: Escherichia coli, read-out: MICs
Method: as §2, §1

[7] = tested on: E. coli DHA-1 (E. coli TOP10 recombinant strain); assay: microbe, parasite or virus in culture; assay type: cell-based; conditions: Escherichia coli, read-out: MICs
Method: as §2, §1

[8] = tested on: E. coli Ear-1 (E. coli TOP10 recombinant strain); assay: microbe, parasite or virus in culture; assay type: cell-based; conditions: Escherichia coli, read-out: MICs
Method: as §2, §1

[9] = tested on: E. coli FOX-5 (E. coli TOP10 recombinant strain); assay: microbe, parasite or virus in culture; assay type: cell-based; conditions: Escherichia coli, read-out: MICs
Method: as §2, §1

[10] = tested on: E. coli LAT-1 (E. coli TOP10 recombinant strain); assay: microbe, parasite or virus in culture; assay type: cell-based; conditions: Escherichia coli, read-out: MICs
Method: as §2, §1

[11] = tested on: E. coli MIR-17 (E. coli TOP10 recombinant strain); assay: microbe, parasite or virus in culture; assay type: cell-based; conditions: Escherichia coli, read-out: MICs
Method: as §2, §1

[12] = tested on: E. coli MOX-2 (E. coli TOP10 recombinant strain); assay: microbe, parasite or virus in culture; assay type: cell-based; conditions: Escherichia coli, read-out: MICs
Method: as §2, §1

[13] = tested on: E. coli PDC-1 (E. coli TOP10 recombinant strain); assay: microbe, parasite or virus in culture; assay type: cell-based; conditions: Escherichia coli, read-out: MICs
Method: as §2, §1

[14] = tested on: E. coli PDC-382 (E. coli TOP10 recombinant strain); assay: microbe, parasite or virus in culture; assay type: cell-based; conditions: Escherichia coli, read-out: MICs
Method: as §2, §1

[15] = tested on: E. coli PDC-5 (E. coli TOP10 recombinant strain); assay: microbe, parasite or virus in culture; assay type: cell-based; conditions: Escherichia coli, read-out: MICs
Method: as §2, §1

[16] = tested on: E. coli SRT-2 (E. coli TOP10 recombinant strain); assay: microbe, parasite or virus in culture; assay type: cell-based; conditions: Escherichia coli, read-out: MICs
Method: as §2, §1

E. coli TOP10 [17] = assay: microbe, parasite or virus in culture; assay type: cell-based; conditions: Escherichia coli
Method: as §2, §1

[18] = tested on: E. coli YRC-1 (E. coli TOP10 recombinant strain); assay: microbe, parasite or virus in culture; assay type: cell-based; conditions: Escherichia coli, read-out: MICs
Method: as §2, §1

[19] = tested on: E. coli ADC-50 (E. coli TOP10 recombinant strain); assay: microbe, parasite or virus in culture; assay type: cell-based, Escherichia coli; conditions: Escherichia coli, read-out: MICs
Method: as §2, §1

[20] = tested on: Escherichia coli NCTC 13353 (CTX-M-15, OXA-1); assay: QC susceptibility testing (MIC), E. coli NCTC 13353; assay type: cell-based; conditions: NCTC13353, read-out: Minimal Inhibitory Concentrations
Method: as §1
(§3) Table S1. Susc eptibility testing of al l QC strains used in the study.
(§4) Mi n ima l In hibitory Concentrations (µg / ml) a […]

[21] = tested on: Klebsiella pneumoniae ATCC 700603 (SHV-18, OXA-2); assay: microbe, parasite or virus in culture; assay type: cell-based; conditions: ATCC700603, read-out: Minimal Inhibitory Concentrations
Method: as §1, §3, §4

[22] = tested on: Pseudomonas aeruginosa ATCC 27853 (inducible AmpC); assay: microbe, parasite or virus in culture; assay type: cell-based; conditions: ATCC27853, QC strain P. aeruginosa ATCC 27853, broth microdilution, Table S1, read-out: Minimal Inhibitory Concentrations
Method: as §1, §3, §4

[23] = ATCC25922, E. coli ATCC 25922, β-lactam alone or with inhibitor at fixed conc.: CLA 2 µg/mL, TZB, AVI, REL, NAC, ZID, DUR, TAN 4 µg/mL, VAB, XER, EMT 8 µg/mL, read-out: MICs

T1 sequence (Q48434 21-381): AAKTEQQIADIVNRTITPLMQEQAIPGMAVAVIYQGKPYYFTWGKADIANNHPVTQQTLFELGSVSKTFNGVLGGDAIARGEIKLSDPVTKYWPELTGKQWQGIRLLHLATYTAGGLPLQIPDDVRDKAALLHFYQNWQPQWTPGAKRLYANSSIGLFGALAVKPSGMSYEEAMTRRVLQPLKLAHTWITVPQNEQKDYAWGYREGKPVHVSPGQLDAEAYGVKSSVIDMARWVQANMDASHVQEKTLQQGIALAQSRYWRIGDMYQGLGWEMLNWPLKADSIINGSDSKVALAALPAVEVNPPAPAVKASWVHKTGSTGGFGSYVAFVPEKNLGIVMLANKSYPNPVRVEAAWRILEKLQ
Chain of ACC-1 (Q9XB24 entry or part of it): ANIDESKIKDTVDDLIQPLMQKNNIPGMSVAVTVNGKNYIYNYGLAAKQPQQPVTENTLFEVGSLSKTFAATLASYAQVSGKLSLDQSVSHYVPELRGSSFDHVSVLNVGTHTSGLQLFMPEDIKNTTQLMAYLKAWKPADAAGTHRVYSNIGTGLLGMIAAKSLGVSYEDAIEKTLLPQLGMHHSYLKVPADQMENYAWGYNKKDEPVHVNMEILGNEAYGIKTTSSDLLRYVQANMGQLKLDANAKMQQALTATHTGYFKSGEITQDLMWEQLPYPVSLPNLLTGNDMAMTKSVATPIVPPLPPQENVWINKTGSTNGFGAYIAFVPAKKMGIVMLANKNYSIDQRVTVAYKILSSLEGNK
T4 sequence (P24735 27-397 R79Q/T105A): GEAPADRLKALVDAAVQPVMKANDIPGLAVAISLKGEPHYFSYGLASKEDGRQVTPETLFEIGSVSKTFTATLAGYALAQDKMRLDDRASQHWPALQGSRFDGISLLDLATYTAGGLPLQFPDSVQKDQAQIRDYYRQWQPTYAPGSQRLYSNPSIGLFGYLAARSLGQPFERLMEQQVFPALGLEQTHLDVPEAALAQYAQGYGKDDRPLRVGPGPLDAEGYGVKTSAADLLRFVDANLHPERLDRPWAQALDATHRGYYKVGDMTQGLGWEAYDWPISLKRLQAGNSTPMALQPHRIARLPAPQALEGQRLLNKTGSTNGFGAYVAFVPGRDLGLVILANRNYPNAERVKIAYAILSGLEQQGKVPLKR
T2 sequence (Q48434 21-381 V231S): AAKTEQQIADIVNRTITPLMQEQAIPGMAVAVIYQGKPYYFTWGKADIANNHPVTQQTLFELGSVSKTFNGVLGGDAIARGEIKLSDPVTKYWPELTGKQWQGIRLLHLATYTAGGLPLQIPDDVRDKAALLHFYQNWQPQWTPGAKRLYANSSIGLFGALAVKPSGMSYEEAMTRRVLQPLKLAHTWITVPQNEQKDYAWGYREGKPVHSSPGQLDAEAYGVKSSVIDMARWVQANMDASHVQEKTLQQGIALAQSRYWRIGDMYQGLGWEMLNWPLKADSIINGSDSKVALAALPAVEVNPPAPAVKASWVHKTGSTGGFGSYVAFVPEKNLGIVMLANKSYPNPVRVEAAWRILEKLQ
Chain of LAT-1 (Q48443 entry or part of it): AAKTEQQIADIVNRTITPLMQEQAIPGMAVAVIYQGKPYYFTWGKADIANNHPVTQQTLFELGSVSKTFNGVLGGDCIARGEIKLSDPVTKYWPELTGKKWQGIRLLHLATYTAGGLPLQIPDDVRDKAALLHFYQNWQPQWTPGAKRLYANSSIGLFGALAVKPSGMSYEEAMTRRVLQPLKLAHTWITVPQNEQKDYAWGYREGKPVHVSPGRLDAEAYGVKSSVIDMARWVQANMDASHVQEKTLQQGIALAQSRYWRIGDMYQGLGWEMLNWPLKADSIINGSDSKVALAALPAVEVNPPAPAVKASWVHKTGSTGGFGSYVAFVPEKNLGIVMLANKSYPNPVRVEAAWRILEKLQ
Chain of SRT-1 (P18539 22-376): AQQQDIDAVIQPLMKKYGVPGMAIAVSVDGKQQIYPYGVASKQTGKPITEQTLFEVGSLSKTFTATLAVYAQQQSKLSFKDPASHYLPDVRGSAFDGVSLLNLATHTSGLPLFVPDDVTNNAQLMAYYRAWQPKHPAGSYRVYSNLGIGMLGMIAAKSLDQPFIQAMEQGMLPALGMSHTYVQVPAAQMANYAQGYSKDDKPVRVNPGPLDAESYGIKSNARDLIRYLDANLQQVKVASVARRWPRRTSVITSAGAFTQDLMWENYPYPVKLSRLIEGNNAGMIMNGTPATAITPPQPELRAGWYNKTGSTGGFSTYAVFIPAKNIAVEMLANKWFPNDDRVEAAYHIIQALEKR
Chain of PDC-382 (P24735 27-397 T96I): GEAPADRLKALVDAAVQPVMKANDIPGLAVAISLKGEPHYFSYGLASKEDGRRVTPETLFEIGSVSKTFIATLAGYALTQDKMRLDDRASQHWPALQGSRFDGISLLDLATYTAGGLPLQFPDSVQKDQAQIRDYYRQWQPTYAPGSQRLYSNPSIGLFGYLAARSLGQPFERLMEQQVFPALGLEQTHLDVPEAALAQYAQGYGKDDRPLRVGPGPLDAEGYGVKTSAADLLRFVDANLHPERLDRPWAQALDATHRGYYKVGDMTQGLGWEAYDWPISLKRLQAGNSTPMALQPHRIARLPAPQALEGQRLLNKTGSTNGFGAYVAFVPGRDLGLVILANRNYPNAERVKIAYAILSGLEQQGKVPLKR
T3 sequence (P24735 27-397): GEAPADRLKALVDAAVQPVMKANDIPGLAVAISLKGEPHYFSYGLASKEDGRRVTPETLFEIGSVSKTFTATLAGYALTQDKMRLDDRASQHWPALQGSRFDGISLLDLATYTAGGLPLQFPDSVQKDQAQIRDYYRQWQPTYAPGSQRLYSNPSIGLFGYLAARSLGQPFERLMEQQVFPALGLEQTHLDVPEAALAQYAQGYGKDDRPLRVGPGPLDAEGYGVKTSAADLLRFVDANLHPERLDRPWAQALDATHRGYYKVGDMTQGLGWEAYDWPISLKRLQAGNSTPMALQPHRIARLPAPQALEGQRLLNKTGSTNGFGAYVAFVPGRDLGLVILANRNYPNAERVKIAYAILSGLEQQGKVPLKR
Chain of ACT-17 (P05364 21-381): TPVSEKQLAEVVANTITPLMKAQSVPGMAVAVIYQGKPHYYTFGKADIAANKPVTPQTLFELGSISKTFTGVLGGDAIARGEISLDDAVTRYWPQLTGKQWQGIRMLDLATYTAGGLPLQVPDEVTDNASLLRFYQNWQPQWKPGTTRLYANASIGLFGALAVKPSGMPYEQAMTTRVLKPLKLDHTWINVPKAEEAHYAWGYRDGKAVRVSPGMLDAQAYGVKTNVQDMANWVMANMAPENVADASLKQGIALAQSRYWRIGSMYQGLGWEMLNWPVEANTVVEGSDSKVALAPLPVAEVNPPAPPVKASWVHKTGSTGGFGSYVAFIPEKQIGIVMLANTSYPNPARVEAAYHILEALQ
Chain of Ear-1 (A0A0H3FRQ3 entry or part of it): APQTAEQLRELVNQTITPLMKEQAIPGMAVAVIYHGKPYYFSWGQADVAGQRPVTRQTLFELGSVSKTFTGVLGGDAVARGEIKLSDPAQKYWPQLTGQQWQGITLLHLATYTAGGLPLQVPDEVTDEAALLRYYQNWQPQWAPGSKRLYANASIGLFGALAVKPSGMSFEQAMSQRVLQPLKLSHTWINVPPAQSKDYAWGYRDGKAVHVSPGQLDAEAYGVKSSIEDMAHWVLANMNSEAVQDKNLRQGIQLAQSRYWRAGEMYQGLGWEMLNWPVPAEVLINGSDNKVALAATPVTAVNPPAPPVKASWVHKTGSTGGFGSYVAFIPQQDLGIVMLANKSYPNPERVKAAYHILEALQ
Chain of ACT-7 (B6V6L3 entry or part of it): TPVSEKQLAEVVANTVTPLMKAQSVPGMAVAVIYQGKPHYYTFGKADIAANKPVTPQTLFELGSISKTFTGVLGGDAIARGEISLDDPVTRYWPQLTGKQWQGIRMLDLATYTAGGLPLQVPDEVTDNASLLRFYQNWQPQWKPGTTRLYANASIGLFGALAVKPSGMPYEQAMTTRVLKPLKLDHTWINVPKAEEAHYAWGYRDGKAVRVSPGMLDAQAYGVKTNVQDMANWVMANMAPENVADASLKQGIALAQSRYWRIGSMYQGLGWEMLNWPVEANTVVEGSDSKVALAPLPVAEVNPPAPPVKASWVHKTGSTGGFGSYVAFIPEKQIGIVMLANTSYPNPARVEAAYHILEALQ
Chain of YRC-1 (Q20I87 entry or part of it): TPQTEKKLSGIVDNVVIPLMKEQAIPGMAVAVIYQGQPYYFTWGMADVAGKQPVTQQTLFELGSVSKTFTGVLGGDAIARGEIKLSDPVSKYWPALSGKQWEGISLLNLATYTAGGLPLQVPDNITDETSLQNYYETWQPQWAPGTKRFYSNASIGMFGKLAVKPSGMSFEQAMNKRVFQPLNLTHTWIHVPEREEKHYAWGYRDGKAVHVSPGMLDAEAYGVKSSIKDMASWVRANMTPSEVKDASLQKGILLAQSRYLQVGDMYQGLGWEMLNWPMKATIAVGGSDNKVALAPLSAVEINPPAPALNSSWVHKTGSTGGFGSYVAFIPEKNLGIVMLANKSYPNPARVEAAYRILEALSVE
Chain of FOX-5 (Q9F4K3 entry or part of it): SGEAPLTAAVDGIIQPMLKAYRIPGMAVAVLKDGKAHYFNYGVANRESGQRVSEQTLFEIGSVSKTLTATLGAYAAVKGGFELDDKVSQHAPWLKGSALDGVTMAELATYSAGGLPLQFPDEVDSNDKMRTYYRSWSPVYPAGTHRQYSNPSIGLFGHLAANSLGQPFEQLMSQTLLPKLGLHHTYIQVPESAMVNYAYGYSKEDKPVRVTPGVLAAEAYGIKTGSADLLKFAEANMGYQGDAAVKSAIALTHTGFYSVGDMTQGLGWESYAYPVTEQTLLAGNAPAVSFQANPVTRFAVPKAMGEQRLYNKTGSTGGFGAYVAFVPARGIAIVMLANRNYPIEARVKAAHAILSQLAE

| SMILES | MIC (E. coli ATCC 25922; [23]) | MIC [2] | MIC [3] | MIC [4] | MIC [5] | MIC [6] | MIC [7] | MIC [8] | MIC [9] | MIC [10] | MIC [11] | MIC [12] | MIC [13] | MIC [14] | MIC [15] | MIC [16] | MIC [18] | MIC [19] | other results |
| --- | --- | --- | --- | --- | --- | --- | --- | --- | --- | --- | --- | --- | --- | --- | --- | --- | --- | --- | --- |
| O=C(O)c1c(F)ccc2c1OB(O)[C@@H]1C[C@H]21 [Xeruborbactam, xeruborbactam] | – | – | – | – | – | – | – | – | – | – | – | – | – | – | – | – | – | – | IC50 (ACC-1): 90 nM; IC50 (FOX-5): 230 nM; IC50 (ACT-7): 290 nM; IC50 (ACT-17): 200 nM; IC50 (CMY-2): 280 nM; IC50 (CMY-42): 430 nM; IC50 (DHA-1): 160 nM; IC50 (LAT-1): 340 nM; IC50 (MOX-2): 260 nM; IC50 (MIR-17): 310 nM; IC50 (Ear-1): 220 nM; IC50 (SRT-1): 220 nM; IC50 (PDC-1): 670 nM; IC50 (PDC-5): 660 nM; IC50 (PDC-382): 320 nM; IC50 (ADC-50): 5400 nM; IC50 (ADC-50; listed as XER): 5000 nM; IC50 (YRC-1): 960 nM; MIC value of XER alone (E. coli TOP10 [1]): above 16 µg/mL |
| CC1(C)S[C@@H]2[C@H](NC(=O)[C@H](N)c3ccc(O)cc3)C(=O)N2[C@H]1C(=O)O [Amoxicillin, amoxicillin] | 4 µg/mL | 32 µg/mL | 512 µg/mL | 1020 µg/mL | > 1020 µg/mL | 1020 µg/mL | 1020 µg/mL | > 1020 µg/mL | 8 µg/mL | 512 µg/mL | 128 µg/mL | 8 µg/mL | 16 µg/mL | 16 µg/mL | 16 µg/mL | 128 µg/mL | 512 µg/mL | 512 µg/mL | MIC (E. coli TOP10 [17]; TOP10, read-out: MICs): 1 µg/mL |
| CC(C)(O/N=C(\C(=O)N[C@@H]1C(=O)N2C(C(=O)[O-])=C(C[n+]3ccccc3)CS[C@H]12)c1csc(N)n1)C(=O)O [Ceftazidime, ceftazidime] | 0.06 µg/mL | 32 µg/mL | 32 µg/mL | 64 µg/mL | > 256 µg/mL | > 256 µg/mL | 128 µg/mL | > 256 µg/mL | 8 µg/mL | 64 µg/mL | 4 µg/mL | 0.5 µg/mL | 0.5 µg/mL | 2 µg/mL | 1 µg/mL | 4 µg/mL | 8 µg/mL | 64 µg/mL | MIC (E. coli ATCC 25922; ATCC25922, QC strain E. coli ATCC 25922, Table S1, read-out: Minimal Inhibitory Concentrations): 0.06 µg/mL; MIC (E. coli TOP10 [17]; E. coli TOP10, broth microdilution, β-lactam alone or with inhibitor at fixed conc.: CLA 2 µg/mL, TZB, AVI, REL, NAC, ZID, DUR, TAN 4 µg/mL, VAB, XER, EMT 8 µg/mL, read-out: MICs): 0.25 µg/mL; MIC [20]: 256 µg/mL; MIC [21]: 64 µg/mL; MIC [22]: 2 µg/mL |
